Patent US20050202522A1, “Method of screening for antimicrobial agents” (NATIONAL INSTITUTE OF ADVANCED INDUSTRIAL SCIENCE AND …, priority 2003, published 2005)

Experiments:
FFRP pot1216151 = experiment: Gel filtration analysis of changes in assemblies of the FFRP induced by amino acids and metabolic intermediates; type: binding, Pyrococcus sp. OT3; settings: for gel filtration peak that increased: FFRP monomer approximately 100 μM, at least 30 minutes at room temperature, UV 220 nm; for concluded effect on assembling of the protein: gel filtration
Method: Changes in assemblies of the FFRP pot1216151 induced by interaction with amino acids and metabolic intermediates were analyzed in solution using gel filtration.
Gel filtration was carried out at a flow rate 1 ml/min, using a matrix (Protein Pak 125, 7.8×300 mm, Waters) and a 50 mM Tris-HCl buffer (pH 7.0) containing 300 mM sodium chloride. Flow of the protein was monitored by measuring the UV absorbance at 220 nm (LC Module I plus system, Waters). The FFRP pot1216151 purified by method 2, i.e., the rigorous method, was dissolved in 50 mM Tris-HCl buffer (pH 7.0) containing 200 mM sodium chloride, and kept at −80° C. until it was diluted by 10-fold with a 50 mM Tris-HCl buffer (pH 7.0) containing 300 mM sodium chloride, and mixed with each potential ligand for at least 30 minutes at room temperature (about 25° C.). In the mixture, the monomer concentration of the FFRP was approximately 100 μM.

FFRP (pot1216151) = experiment: Changes in crystal structure (depolarization) of FFRP crystals soaked in amino acid solutions; type: binding, Pyrococcus sp. OT3; settings: crystals soaked in solution of one amino acid, 10 mM
Method: It has been known that the regularity inside a crystal might be affected, if the structure of the protein changes upon interaction with a ligand which is incorporated from outside the crystal, thereby depolarizing the crystal. Crystals of the FFRP (pot1216151) were soaked into solutions, each containing one of twenty amino acids at the same concentration 10 mM. […] With the other amino acids, no change was observed.

E. coli Lrp = E. coli Lrp (Escherichia coli, UniProt P0ACJ0); settings: Marasco et al., 1994; cited from earlier work
Chain of E. coli Lrp (P0ACJ0 2-164): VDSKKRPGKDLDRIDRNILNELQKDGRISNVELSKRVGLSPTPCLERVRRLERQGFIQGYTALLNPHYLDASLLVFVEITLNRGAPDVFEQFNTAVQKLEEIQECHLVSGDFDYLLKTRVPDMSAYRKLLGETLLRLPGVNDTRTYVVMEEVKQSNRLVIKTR

SMILES	gel filtration peak that increased (FFRP pot1216151; amino acid 1 mM)	concluded effect on assembling of the protein (FFRP pot1216151; amino acid 1 mM)	change of the FFRP crystal (depolarization) on soaking (FFRP (pot1216151))	gel filtration peak that increased (FFRP pot1216151; metabolic intermediate 10 mM)	effect of leucine on the FFRP assembly (E. coli Lrp)	concluded effect on assembling of the protein (FFRP pot1216151; metabolic intermediate 10 mM)
C[C@@H](O)[C@H](N)C(=O)O [threonine]	the fourth peak increased	accelerate disassembling of the protein				
CC(C)[C@H](N)C(=O)O [valine]	the third peak increased	stabilizing intermediate assemblies	the crystals depolarized after several hours			
N[C@@H](Cc1ccccc1)C(=O)O [phenylalanine]	the fourth peak increased	accelerate disassembling of the protein				
CC[C@H](C)[C@H](N)C(=O)O [isoleucine]	the second peak increased	accelerates assembling of the protein	the crystals depolarized after several hours			
O=C(O)C(O)COP(=O)(O)O (stereo not drawn) [3-phosphoglyceric acid]				no significant effect		
CSCC[C@H](N)C(=O)O [methionine]	the fourth peak increased	accelerate disassembling of the protein	the crystals depolarized after several hours			
CC(C)C[C@H](N)C(=O)O [leucine]	the fourth peak increased	accelerate disassembling of the protein	the crystals depolarized after several hours		disassembling these FFRPs	
C[C@H](N)C(=O)O [alanine]	the fourth peak increased	accelerate disassembling of the protein				
N=C(N)NCCC[C@H](N)C(=O)O [arginine]	the fourth peak increased	accelerate disassembling of the protein				
CC(=O)C(=O)O [pyruvic acid]				no significant effect		
O=C(O)CC(O)C(=O)O (stereo not drawn) [malic acid]				the third peak increased		stabilizing intermediate assemblies
O=C(O)CC(=O)C(=O)O [oxaloacetic acid]				the third peak increased		stabilizing intermediate assemblies
